US11752115B2, “PPAR-alpha agonist treatment of neuropsychiatric disorders” (THE BOARD OF TRUSTEES OF THE UNIVERSITY OF ILLINOIS, priority 2017, dated 2023)
Like-named read-outs stand apart in the source and are kept apart here.

What was measured:
SI mice [1] = experiment: Elevated plus maze; type: in vivo; details: for prevention of the anxiolytic effect of PEA, vs. PEA 10 mg/kg (FIG. 3D): PEA 10 mg/kg i.p. 1 h before test; for time spent in the open arms (increase vs vehicle-treated SI mice): […] before test
Method: Elevated plus maze. Elevated plus maze tests were performed as previously (28). Mice chose between entering open or closed arms that extend from a central platform. An arm entry was scored when four legs were within the arm. Behavior was recorded for 5 min. The time spent and the number of open arm entries were used as index of anxiety-like behavior.

[2] = tested on: allopregnanolone (Allo) levels; experiment: Brain neurosteroid measurements (GC-MS): Allo; type: in vivo, mice; details: for Allo content in the olfactory bulb vs. PEA-treated mice (block of PEA effect): PEA 10 mg/kg i.p. 1 h before sacrifice
Method: (§1) Brain neurosteroid measurements. Extraction, derivatization and quantification of unconjugated neurosteroids was described previously (32). Steroids were extracted and then purified and separated by high-performance liquid chromatography (HPLC) after addition of deuterium-labeled internal standards (25). The aqueous phase (2 ml) containing sulfated neurosteroids underwent a solvolysis. After derivatization, gas chromatography-mass spectrometry analysis in the standard electron impact mode as previously reported (24, 25).

SI mice [3] = experiment: Locomotor activity (Example 1); type: in vivo; details: PEA 5, 10, 20 mg/kg i.p., G7 10 mg/kg i.p., G6 3 mg/kg i.p., FIN 50 mg/kg s.c.
Method: Locomotor activity. […] Horizontal sensors beam interruptions measured horizontal activity for a total of 10 min.

PPD patients = details: intravenous infusions, vs only 9% of placebo-treated; cited from earlier work
[4] = tested on: cannabinoid receptor type 1 (CB1); details: direct activation of CB1 (Vallée et al., 2014); cited from earlier work
TNF-α = details: depressed patients, responders [82]; cited from earlier work
[5] = tested on: early and late adolescent SI mice; details: for time after which aggression rebounded (duration of anti-aggressive effect): early and late adolescent SI mice; for EC50 dose, reduction of aggression: i.p., 60 min before test
Method: Resident-Intruder Test. To test aggression, a male intruder mouse of the same strain as the resident mouse, was placed in a resident home cage (24 cm×17 cm×12 cm) and resident-intruder interactions were videotaped for 10 min. Aggressive behavior of SI mice was characterized by an initial pattern of exploratory activity around the intruder, followed by rearing and tail rattle, accompanied within a few seconds by wrestling and/or a violent biting attacks. The total number of wrestling and attacks during the 10 min observation period was measured as previously described (Pinna et al., 2003, 2005), 60 min after drug administration. For every drug studied, SI mice were first exposed to three behavioral sessions, and then the average of basal aggression level for every single SI mouse was calculated; 2 days later, aggression levels following treatment were tested. Treated animals showing a reduction of the number of attacks less than 30% vs. the respective basal control values were considered as “low- to non-responders.”
Statistical Analyses. Results are presented as means±SEMs unless otherwise indicated. Student's t-test, one-way ANOVA and two-way ANOVA repeated measures followed by Bonferroni post hoc test were performed to analyze experimental data; significance was set at p<0.05. EC50 values were calculated from dose-response curves analyzed by the “quantal dose-response: probits test” using the computer program of Tallarida and Murray equipped with a statistical package (Tallarida and Murray, 1987). Statistical comparisons among the different EC50s were performed with the “cohort package software.” (available at cohort.com).

[6] = tested on: early and late adolescent SI mice; experiment: Locomotor activity (Example 2); details: all doses tested, i.p., 60 min before test
[7] = Contextual fear conditioning, extinction and extinction retention; type: in vivo, mice; details: GH mice; 5 mg/kg i.p.
Method: (§2) Contextual fear conditioning. Contextual fear conditioning was performed as previously (25).
(§3) Conditioning trial. Mice were placed in the chamber and exposed for 8 min to a conditioned stimulus and an electric foot-shock (unconditioned stimulus).
(§4) Reactivation. 24 h after conditioning, mice were re-exposed for 5 min to the context for retrieval/reactivation and treated immediately after reactivation.
(§5) Extinction and extinction retention. 24 h after reactivation, mice were re-introduced for 5 min in the chamber once daily for 5 days and freezing time was an index of contextual fear responses. After an interval of 8 days, mice were re-exposed to the chamber to determine extinction retention (25).

SI mice [8] = experiment: as above; type: in vivo; details: PPAR-α KO mice; 5 mg/kg i.p.
Method: as §2, §3, §4, §5

SI mice [9] = experiment: Forced swim test (FST); type: in vivo
Method: (§6) Forced swim test and tail suspension test. The forced swim test (FST) or a tail suspension test (TST) was performed as previously (30, 31). FST sessions were video-recorded for 6 min and the last 4 min were analyzed (30). TST duration was 6 min. Immobility time was an index of depressive-like behavior.

SI mice [10] = experiment: Tail suspension test (TST); type: in vivo
Method: as §6

Pregnenolone (PE) = experiment: Brain neurosteroid measurements (GC-MS): pregnenolone; type: in vivo; details: SI mice, 1 h
Method: as §1

[11] = tested on: Progesterone (Prog) levels; experiment: Brain neurosteroid measurements (GC-MS): progesterone; type: in vivo; details: SI mice, 1 h
Method: as §1

[12] = tested on: 5α-dihydroprogesterone (5α-DHP); experiment: Brain neurosteroid measurements (GC-MS): 5α-DHP; type: in vivo; details: SI mice, 1 h
Method: as §1

[13] = tested on: Allo sulfate (Allo-S) and other sulfated neurosteroids; experiment: Brain sulfated neurosteroid measurements (GC-MS); type: in vivo; details: SI mice; for Allo-S, hippocampus (increase): 60 minutes before sacrifice
Method: as §1

[14] = SI mice, 10 mg/kg i.p., 1 h before test
[15] = PPAR-α KO SI mice, 10 mg/kg i.p., 60 minutes before test

CC(C)(Sc1ccc(CCN(CCCCC2CCCCC2)C(=O)NC2CCCCC2)cc1)C(=O)O [G7, GW7647]
number of entries in the open arms (change vs vehicle-treated SI mice) (SI mice [1]; [14]): +247%
time spent in the open arms (change vs vehicle-treated SI mice) (SI mice [1]; [14]): +506%
Allo levels, olfactory bulb (increase vs vehicle-treated SI mice) ([2]; SI mice, 10 mg/kg i.p., 1 h): +89%
sedation / effect on locomotor activity (SI mice [3]): do not induce sedation

CC(C)(C)NC(=O)[C@H]1CC[C@H]2[C@@H]3CC[C@H]4NC(=O)C=C[C@]4(C)[C@H]3CC[C@]12C [FIN, Finasteride]
prevention of the anxiolytic effect of PEA, vs. PEA 10 mg/kg (FIG. 3D) (SI mice [1]; SI mice, 50 mg/kg s.c. 2.5 h before test): −68%
Allo content in the olfactory bulb vs. PEA-treated mice (block of PEA effect) ([2]; SI mice, 50 mg/kg s.c. 2.5 h before sacrifice): −60%
sedation / effect on locomotor activity (SI mice [3]): do not induce sedation

CC(=O)[C@H]1CC[C@H]2[C@@H]3CC[C@H]4C[C@H](O)CC[C@]4(C)[C@H]3CC[C@]12C [allopregnanolone]
patients with rapid and long lasting remission of depressive symptoms (PPD patients): 70%

CCC(=O)NC[C@H](Cc1ccc(OCCc2nc(-c3ccccc3)oc2C)cc1)N/C(C)=C\C(=O)c1ccc(C(F)(F)F)cc1 [G6, GW6471]
prevention of the anxiolytic effect of PEA, vs. PEA 10 mg/kg (FIG. 3D) (SI mice [1]; SI mice, 3 mg/kg i.p. […] before test): −78%
Allo content in the olfactory bulb vs. PEA-treated mice (block of PEA effect) ([2]; SI mice, 3 mg/kg i.p. […] before sacrifice): −48%
sedation / effect on locomotor activity (SI mice [3]): do not induce sedation

CC(C)OC(=O)C(C)(C)Oc1ccc(C(=O)c2ccc(Cl)cc2)cc1 [fenofibrate, Fenofibrate]
time spent in the open arms (increase vs vehicle-treated SI mice) (SI mice [1]; SI mice, 7.5 mg/kg s.c.): +88%
time spent in the open arms (increase vs vehicle-treated SI mice) (SI mice [1]; SI mice, 30 mg/kg s.c.): +442%
time spent in the open arms (increase vs vehicle-treated SI mice) (SI mice [1]; SI mice, 120 mg/kg s.c.): +552%
sedation / effect on locomotor activity (SI mice [3]): do not induce sedation

CCCCCc1cc(O)c2c(c1)OC(C)(C)[C@@H]1CCC(C)=C[C@@H]21 [THC, 19-tetrahydrocannabinol]
increase of the synthesis of pregnenolone [4]: 30 fold

CN(C)CCC[C@@]1(c2ccc(F)cc2)OCc2cc(C#N)ccc21 [escitalopram]
lower expression of TNF-α after successful treatment (TNF-α): 30%

CNCC[C@H](Oc1ccc(C(F)(F)F)cc1)c1ccccc1 [S-FLX, S-fluoxetine]
reduction in the number of attacks vs. basal value ([5]; late SI mice, 0.75 mg/kg i.p.): −52%
time after which aggression rebounded (duration of anti-aggressive effect) ([5]; single dose 0.375 mg/kg): 1 days
time after which aggression rebounded (duration of anti-aggressive effect) ([5]; single dose 0.75 mg/kg and […]): 3 days
exploratory / locomotor activity [6]: did not reduce

CCCCCCCCCCCCCCCC(=O)NCCO [PEA, N-Palmitoylethanolamine]
contextual fear responses in GH mice [7]: failed to affect contextual fear responses
contextual fear responses in PPAR-α KO mice (SI mice [8]): failed to affect contextual fear responses
anxiolytic effect in GH mice (elevated plus maze) (SI mice [1]; GH mice, 5-10 mg/kg i.p.): had no effect
number of entries in the open arms (vs vehicle) (SI mice [1]; [15]): +6%
time spent in the open arms (vs vehicle) (SI mice [1]; [15]): −1%
time of immobility in the FST in GH-control animals (SI mice [9]; GH-control mice, 10 mg/kg): lack of effect
time of immobility in the FST vs vehicle-treated mice (SI mice [9]; PPAR-α KO mice, 10 mg/kg i.p.): +5%
time of immobility in the TST in GH-control animals (SI mice [10]; GH-control mice, 10 mg/kg): lack of effect
time of immobility in the TST vs vehicle-treated mice (SI mice [10]; PPAR-α KO mice, 10 mg/kg i.p.): +12%
Allo concentrations, olfactory bulb of GH mice ([2]; GH mice, 20 mg/kg i.p., 60 minutes before sacrifice): does not modify
Allo levels, olfactory bulb of PPAR-α KO mice ([2]; SI PPAR-α KO mice, 10 mg/kg i.p., 1 h before sacrifice): failed to affect
Allo levels in the serum (peripheral levels) ([2]; SI mice, 10 mg/kg i.p., 1 h before sacrifice): failed to change
Allo levels, striatum ([2]; SI mice, 5, 10 and 20 mg/kg i.p., 1 h): failed to change
Pregnenolone (PE), olfactory bulb (increase) (Pregnenolone (PE); 5 mg/kg i.p.): +50%
Pregnenolone (PE), olfactory bulb (increase) (Pregnenolone (PE); 10 mg/kg i.p.): +69%
Progesterone (Prog) levels, striatum (increase) ([11]; 10 mg/kg i.p.): +356%
Progesterone (Prog) levels, amygdala (increase) ([11]; 20 mg/kg i.p.): +223%
Progesterone (Prog) levels, hippocampus (increase) ([11]; 20 mg/kg i.p.): +3128%
Progesterone (Prog) levels, striatum (increase) ([11]; 20 mg/kg i.p.): +594%
5α-dihydroprogesterone (5α-DHP), hippocampus (increase) ([12]; 10 mg/kg i.p.): +64%
5α-dihydroprogesterone (5α-DHP), hippocampus (increase) ([12]; 20 mg/kg i.p.): +87%
Allo-S, hippocampus (increase) ([13]; 10 mg/kg i.p.): +100%
Allo-S, hippocampus (increase) ([13]; 20 mg/kg i.p.): +104%
other sulfated neurosteroid levels (PE sulfate, PA sulfate, DHEA sulfate) ([13]; olfactory bulb and hippocampus, 5, 10 and 20 mg/kg i.p.): did not affect
sedation / effect on locomotor activity (SI mice [3]): do not induce sedation
reduction of the number of attacks vs. basal value ([5]; early SI mice, 10 mg/kg i.p.): −57%
reduction of the number of attacks vs. basal value ([5]; early SI mice, 15 mg/kg i.p.): −75%
reduction of the number of attacks vs. basal value ([5]; early SI mice, 20 mg/kg i.p.): −86%
EC50 dose, reduction of aggression ([5]; early adolescent SI mice (PND 21)): 8 mg/kg
reduction of the number of attacks vs. basal value ([5]; late SI mice, 10 mg/kg i.p.): −81%
reduction of the number of attacks vs. basal value ([5]; late SI mice, 15 mg/kg i.p.): −84%
reduction of the number of attacks vs. basal value ([5]; late SI mice, 20 mg/kg i.p.): −91%
EC50 dose, reduction of aggression ([5]; late adolescent SI mice (PND 45)): 6.5 mg/kg
duration of anti-aggressive effect ([5]; single dose 10 mg/kg and 15 mg/kg, late SI adolescent mice): less than 3 days
time after which the effect was extinguished ([5]; single dose 20 mg/kg, late SI mice): 5 days
duration of anti-aggressive effect (persisted) ([5]; single dose 20 mg/kg, late adolescent SI mice): 3 days
time after which aggressive behavior was reinstated ([5]; single dose 10, 15, and 20 mg/kg, early SI mice): 3 days
time after which aggressive behavior was reinstated ([5]; single dose 10 and 15 mg/kg, late SI mice): 3 days
